Source: ChEMBL document CHEMBL1151501, “A benzisothiazolone class of potent, selective mechanism-based inhibitors of human leukocyte elastase” (Bioorg Med Chem Lett, 1994)

Columns and labels:
[1] = biological target: T1, Neutrophil elastase (Homo sapiens) (UniProt P08246)
T1 sequence (whole entry): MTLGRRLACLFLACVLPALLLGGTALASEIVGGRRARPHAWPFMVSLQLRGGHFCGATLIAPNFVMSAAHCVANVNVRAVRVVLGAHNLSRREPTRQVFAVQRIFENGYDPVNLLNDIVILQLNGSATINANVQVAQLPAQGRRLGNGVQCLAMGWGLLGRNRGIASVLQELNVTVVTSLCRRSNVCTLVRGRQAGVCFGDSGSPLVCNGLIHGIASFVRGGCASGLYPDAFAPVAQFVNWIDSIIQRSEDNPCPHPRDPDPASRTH
Description: Inhibition of human leukocyte elastase (HLE) expressed as K reactivation rate

[2] = biological target: T1, Neutrophil elastase (Homo sapiens); remark: listed apart in the source
Description: Inhibition of human leukocyte elastase (HLE) expressed as K inactivation rate

[3] = biological target: T2, Neutrophil elastase (Homo sapiens, UniProt P08246); test: Potency of Inhibition of human leukocyte elastase (HLE) expressed as apparent binding constant
T2 sequence (P08246 whole entry): T1 sequence (whole entry)

| Compound | Kreact [1] | K inact [2] | Ki [3] |
| --- | --- | --- | --- |
| O=C1c2c(Br)cccc2S(=O)(=O)N1CSc1nnnn1-c1ccccc1 | 0.00036 s⁻¹ |  |  |
| Cn1nnnc1SCN1C(=O)c2ccccc2S1(=O)=O | 0.0001 s⁻¹ | 1000 M⁻¹ s⁻¹ |  |
| CC(=O)OCN1C(=O)c2ccccc2S1(=O)=O | 0.0001 s⁻¹ | 630 M⁻¹ s⁻¹ |  |
| O=C1c2c(-c3ccccc3)cccc2S(=O)(=O)N1CSc1nnnn1-c1ccccc1 | 0.0005 s⁻¹ | 5800 M⁻¹ s⁻¹ |  |
| O=C1c2ccccc2S(=O)(=O)N1CSc1nnnn1C1CCCCC1 | 0.0001 s⁻¹ | 2500 M⁻¹ s⁻¹ |  |
| CC(C)Oc1cccc2c1C(=O)N(CSc1nnnn1-c1ccccc1)S2(=O)=O | 0.00016 s⁻¹ | 8900 M⁻¹ s⁻¹ |  |
| Cn1cnnc1SCN1C(=O)c2ccccc2S1(=O)=O | 4.7e-05 s⁻¹ | 190 M⁻¹ s⁻¹ |  |
| CC(C)(C)c1cccc2c1C(=O)N(CSc1nnnn1-c1ccccc1)S2(=O)=O |  |  | 2000 nM |
| CCOc1cccc2c1C(=O)N(CSc1nnnn1-c1ccccc1)S2(=O)=O | 0.00014 s⁻¹ | 45300 M⁻¹ s⁻¹ |  |
